Assay results taken from US12366576B2, “Compositions, assays, and methods for direct modulation of fatty acid metabolism” (Dana-Farber Cancer Institute, Inc., priority 2016, dated 2025).
Bridge positions count the residues as written; N and C are the ends. Square brackets hold non-standard residues; d marks the D form. Ends that are not written are not given here. Peptide text beside a SMILES is read from it. S5 = C=CCCC[C@](C)(N)C(=O)O

Legend:
[1] = tested on: endogenous MCL-1; experiment: Biotinylated SAHB pulldown from MEF lysates, anti-MCL-1 Western analysis; type: binding, mouse; details: for effect of alanine mutation on biotinylated MCL-1 SAHBD interaction with MCL-1: pull-downs from MEF lysates; for summary of binding properties: binding to MCL-1: pull-downs
Method: An exploratory proteomics analysis was conducted to identify proteins that interact with the MCL-1 BH3 domain helix. An extensive library of MCL-1 stapled BH3 peptides (FIG. 2) was generated to both identify novel protein interactors by mass spectrometry and then deploy the stapled peptide constructs as novel probes to dissect and pharmacologically modulate the identified protein interactors and associated signaling pathways. As an example, an N-terminally biotinylated stapled peptide designed based on the sequence of MCL-1's BH3 domain (Btn-MCL-1 SAHBD), or vehicle, was incubated with wild-type mouse embryonic fibroblast (MEF) lysates, followed by high stringency streptavidin capture. To validate the proteomics workflow and ensure that Btn-MCL-1 SAHBD could, in fact, engage protein interactors in a lysate, eluates were first run on a gel for anti-MCL-1 Western analysis. […] For mass spectrometry (MS) analysis, eluates were run on a reducing/denaturing gel followed by Coomassie staining (FIG. 4) and in-gel digestion was performed before injection on the instrument.
The binding determinants for the MCL-1 BH3/VLCAD interaction were investigated by generating a series of biotinylated MCL-1 SAHBD alanine point mutants (FIG. 18A) and performing streptavidin pull-downs from MEF lysates, followed by VLCAD and MCL-1 western analysis of the resulting eluates. […] Native alanines and residues not mutated are colored white.
Wild-type MEFs were trypsinized, washed once with cold PBS, and lysed on ice with NP-40 lysis buffer (50 mM Tris, pH 7.4, 150 mM NaCl, 0.5% (v/v) NP-40, complete protease inhibitor pellet (Roche)) using 1 ml of lysis buffer for every 10 million cells lysed. Cellular debris was pelleted at 14,000 g for 10 min at 4° C., and the supernatant was quantified using the BCA Protein Assay Kit (Thermo Fisher Scientific). 2 mg of lysate per pulldown were then exposed to 50 μL of pre-equilibrated High Capacity Streptavidin Agarose beads (Thermo Fisher Scientific). […] The beads were then pelleted and washed with NP-40 lysis buffer three times before eluting the protein sample from the beads by heating at 70° C. for 10 min in SDS loading buffer. Samples were then subjected to electrophoresis and either Western analysis or Coomassie stain (SimplyBlue Safe Stain, Thermo Fisher Scientific). […] Coomassie stained gels were then processed for proteomics analysis (see below). Biotinylated SAHB pulldowns of recombinant protein were performed as above incubating 5 nmol of SAHB with 10 pmol of rVLCAD in 500 μL total volume. Densitometry analyses were performed using ImageJ software.

[2] = biological target: T1, VLCAD (Homo sapiens, UniProt P49748); experiment: Isothermal calorimetry (ITC); type: binding; details: 80 μM recombinant VLCAD, injection of 100 μM peptide, 25° C.
T1 construct: 10x His (N); made in house; host or cells: E. coli BL21(DE3), pET19b
T1 sequence (P49748 40-655): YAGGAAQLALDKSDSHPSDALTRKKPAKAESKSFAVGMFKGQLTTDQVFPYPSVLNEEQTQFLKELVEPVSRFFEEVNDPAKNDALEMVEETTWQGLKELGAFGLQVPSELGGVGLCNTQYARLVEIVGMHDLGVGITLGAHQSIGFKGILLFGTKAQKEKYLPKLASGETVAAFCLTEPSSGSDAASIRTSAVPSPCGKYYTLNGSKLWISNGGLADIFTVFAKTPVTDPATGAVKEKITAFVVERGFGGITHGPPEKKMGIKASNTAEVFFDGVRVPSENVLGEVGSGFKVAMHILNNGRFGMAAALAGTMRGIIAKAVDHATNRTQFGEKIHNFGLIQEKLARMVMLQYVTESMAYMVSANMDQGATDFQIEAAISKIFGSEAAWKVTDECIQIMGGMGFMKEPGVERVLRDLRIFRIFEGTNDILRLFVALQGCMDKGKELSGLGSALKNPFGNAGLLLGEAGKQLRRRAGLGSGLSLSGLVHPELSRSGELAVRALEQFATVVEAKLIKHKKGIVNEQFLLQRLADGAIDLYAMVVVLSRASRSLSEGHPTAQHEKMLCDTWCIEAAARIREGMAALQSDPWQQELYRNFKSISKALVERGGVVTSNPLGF
Excerpt: The alanine mutant peptide panel was then utilized in an isothermal calorimetry (ITC)-based enthalpy screen to assess the relative binding activities of the different peptides to recombinant VLCAD protein (FIG. 19A). Although some differences in binding hierarchy were observed between the pull down (native protein) and ITC (purified recombinant protein) methods, those peptides displaying the strongest and weakest binding activity for VLCAD were similar between the two analyses.
VLCAD. Mature human VLCAD lacking its cleavable leader sequence (aa 40-655) (NP_000009.1) was subcloned into the pET19b vector (Novagen) using NdeI and XhoI restriction sites. Correct insertion was confirmed by DNA sequencing. The 10× His-tagged VLCAD construct was expressed in BL21(DE3) E. coli, and once cells reached an OD of 0.8 after growing at 37° C., they were induced with 0.5 mM […] (IPTG) (Gold Biotechnology I2481C) at 37° C. for 4 hours. Bacterial pellets were resuspended in lysis buffer (500 mM NaCl, 50 mM HEPES, 5% glycerol, pH 7.5, complete protease inhibitor tablet) and lysed by microfluidization (M-110L; Microfluidics). Cell lysates were then cleared by centrifugation at 20,000 rpm for 45 min (Beckman Avanti J-E, rotor type JA-20). Cleared cellular lysates were then subjected to Ni-NTA (QIAGEN) affinity chromatography, followed by elution with 300 mM imidazole (Sigma 12399) and overnight dialysis at 4° C. Dialyzed VLCAD was then concentrated and subjected to size exclusion chromatography (GE Healthcare Life Sciences Superdex 200 10/300 GL) at 4° C. using 150 mM NaCl, 50 mM Tris, pH 8.0. Protein was used upon isolation and was stored at 4° C. for up to two weeks. Successful protein production was confirmed by SDS-PAGE, Western blot, intact MS, and enzymatic activity assay.
A peptide enthalpy screen was performed by adding 80 μM of recombinant VLCAD to the cell in analysis buffer (20 mM HEPES, pH 7.5, 150 mM NaCl, 1 mM TCEP, and 1% DMSO), followed by injection of 2.0 μL of 100 μM peptide by syringe, using an Affinity ITC (TA instruments) at 25° C. Injections were performed in technical triplicate for each peptide. […] Data were analyzed with the NanoAnalyze software package (TA instruments) using a single binding site model and thermodynamic parameters calculated as follows: ΔG=ΔH−TΔS=−RTlnKB, where ΔG, ΔH, and ΔS are the changes in free energy, enthalpy and entropy of binding, respectively.

Compound	effect of alanine mutation on biotinylated MCL-1 SAHBD interaction with MCL-1 [1]	summary of binding properties: binding to MCL-1 [1]	relative binding activity for VLCAD (ITC enthalpy screen, consistent with pull down) [2]	relative binding activity for VLCAD (ITC enthalpy screen, consistent with pull down) ([2]; listed as MCL-1 SAHBD V220A)
CC(=O)N[C@@H](CCCNC(=N)N)C(=O)N[C@@H](CCCCN)C(=O)N[C@@H](C)C(=O)N[C@@H](CC(C)C)C(=O)N[C@@H](CCC(=O)O)C(=O)N[C@H](C(=O)N[C@@H](CC(C)C)C(=O)N[C@@H](CCCNC(=N)N)C(=O)N[C@@H](CCCNC(=N)N)C(=O)N[C@H](C(=O)NCC(=O)N[C@@H](CC(=O)O)C(=O)NCC(=O)N[C@@H](C)C(=O)N[C@@]1(C)CCCC=CCCC[C@@](C)(C(=O)N[C@H](C(=O)N[C@@H](C)C(=O)N[C@@H](Cc2ccccc2)C(N)=O)[C@@H](C)O)NC(=O)[C@H](Cc2c[nH]cn2)NC(=O)[C@H](CC(N)=O)NC(=O)[C@H](CCCNC(=N)N)NC1=O)C(C)C)[C@@H](C)O [V220A] (Ac-RKALETLRRVGDGA[S5]RNH[S5]TAF-NH2; staple 15-19; N-terminus and C-terminus assumed)	uniquely disruptive	weakly or not	robust binding	strongest binder
D218A: biotinylated MCL-1 SAHBD alanine point mutant D218A (RKALETLRRVGAGV[S5]RNH[S5]TAF; staple 15-19; also: biotinylated, place not given here)		Binds	robust binding	
F228A: biotinylated MCL-1 SAHBD alanine point mutant F228A (RKALETLRRVGDGV[S5]RNH[S5]TAA; staple 15-19; also: biotinylated, place not given here)		Does not bind	weak VLCAD association	
L213A: biotinylated MCL-1 SAHBD alanine point mutant L213A (RKALETARRVGDGV[S5]RNH[S5]TAF; staple 15-19; also: biotinylated, place not given here)	disrupted	Does not bind	weak VLCAD association	
MCL-1 SAHBD: hydrocarbon-stapled peptide mimicking the MCL-1 BH3 domain (Stabilized Alpha-Helix of BCL-2 Domain), SEQ ID NO:19 (RKALETLRRVGDGV[S5]RNH[S5]TAF; staple 15-19)		Binds		
R207A: biotinylated MCL-1 SAHBD alanine point mutant R207A (AKALETLRRVGDGV[S5]RNH[S5]TAF; staple 15-19; also: biotinylated, place not given here)		diminished binding	weak VLCAD association	
R214A: biotinylated MCL-1 SAHBD alanine point mutant R214A (RKALETLARVGDGV[S5]RNH[S5]TAF; staple 15-19; also: biotinylated, place not given here)		Does not bind	weak VLCAD association	
R215A: biotinylated MCL-1 SAHBD alanine point mutant R215A (RKALETLRAVGDGV[S5]RNH[S5]TAF; staple 15-19; also: biotinylated, place not given here)		Binds	weak VLCAD association	
